Source: ChEMBL document CHEMBL5346865, “Male contraceptive development: A medicinal chemistry perspective” (Eur J Med Chem, 2022)

Experiments:
Mus musculus = organism: Mus musculus; assay: Contraceptive effect in mouse model of contraception; assay type: functional
[1] = Inhibition of sperm motility in human Spermatozoa incubated for 1 to 2 hrs by computer assisted sperm analysis; assay type: functional, cell-based
[2] = Inhibition of sperm motility in human Spermatozoa assessed as remaining progressive sperm motility relative to control; assay type: functional
[3] = Half life in cynomolgus monkey at 1 mg/kg, iv administered as single infusion dose; assay type: ADME, organism-based, Macaca fascicularis; settings: in vivo

IC50 [1] [µM]	half-life [3] [min]	Compound	Activity (Mus musculus) [%]	Activity [2] [%]
		Cc1ccc(C2=CC(C)(C)Oc3ccc(-c4ccc(-c5ccc(C(=O)[O-])cc5)[nH]4)cc32)cc1.[Na+]	>99	
200	< 12	COC(=O)NNc1nc(Nc2ccc(NC(C)=O)c(O)c2)nc(SCC(=O)O)n1		<20
